Experimental data taken from patent US20090076140A1, “PHARMACEUTICAL COMPOSITIONS CONTAINING SULPHONIC ACID DERIVATIVES” (ITALFARMACO, S. A., priority 2003, published 2009).
Entries after “also recorded” stand apart in the source; their conditions may differ. Like-named read-outs stand apart in the source and are kept apart here.

Assays:
[1] = tested on: quiescent fibroblasts (Balb/c 3T3); test: toxicity analysis for quiescent fibroblasts (culture in the absence of aFGF); format: cell-based; conditions: for toxicity for quiescent fibroblasts: within the concentration range tested / in which aFGF mitogenic activity is inhibited
aFGF [2] = target: T1, aFGF (Homo sapiens, UniProt P05230); test: aFGF-induced mitogenesis inhibition test on fibroblasts in culture; format: cell-based; design: the aFGF of 139 amino acid residues; conditions: for aFGF-induced mitogenic activity inhibition (in words): Balb/c 3T3 fibroblasts, 60 hours, MIHS 20 μg/mL, aFGF 0.32 ng/mL; for aFGF-induced mitogenic inhibitory activity compared between compounds (stereochemical guidelines): C-9 and C-17 vs. C-14 and C-18, C-10, C-11, C-13 vs. C-9, 2-NMS vs 1-NMS series
T1 sequence (P05230 16-155 limits assumed): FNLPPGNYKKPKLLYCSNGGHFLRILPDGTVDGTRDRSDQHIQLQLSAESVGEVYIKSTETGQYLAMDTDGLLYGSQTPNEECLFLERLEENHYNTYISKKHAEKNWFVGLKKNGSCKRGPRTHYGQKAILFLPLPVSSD

[3] = tested on: quiescent fibroblasts (Balb/c 3T3); conditions: Lozano et al. (1998), cited from earlier work
aFGF [4] = target: T1, aFGF; design: the aFGF of 139 amino acid residues; conditions: Lozano et al. (1998), cited from earlier work
[5] = listed as sodium 5-acetylamino-2-naphthalenesulfonate
[6] = listed as sodium 4-hydroxy-6-amino-2-naphthalenesulfonate

Row | SMILES | aFGF-induced mitogenic activity inhibition (in words) (aFGF [2]) | toxicity for quiescent fibroblasts [1] | further results
1 | O=C(O)c1ccccc1C(=O)Nc1cccc2cc(S(=O)(=O)O)ccc12.[Na] [Compound C-12, sodium 2-{[(6-sulfo-1-naphthyl)amino]carbonyl}benzoic acid] | effective aFGF-induced mitogenesis activity inhibitors | – | mitogenesis inductor / tumorigenic effect on quiescent fibroblasts in the absence of aFGF [1]: high mitogenesis inductor activity
2 | O=C(Nc1cccc2cc(S(=O)(=O)[O-])ccc12)c1ccccc1.[Na+] [Compound C-11, sodium 5-benzoylamino-2-naphthalenesulfonate] | aFGF-induced mitogenic activity inhibitors | – | aFGF-induced mitogenic inhibitory activity compared between compounds (stereochemical guidelines) (aFGF [2]): significant reduction
3 | O=S(=O)([O-])c1ccc2ncccc2c1.[Na+] [Compound C-23, sodium 6-quinolinesulfonate] | potent aFGF-induced mitogenic activity inhibitor | toxic effect | –
4 | Cc1ccc2ccccc2c1S(=O)(=O)[O-].[Na+] [Compound C-2, sodium 2-methyl-1-naphthalenesulfonate] | aFGF-induced mitogenic activity inhibitors | certain toxic effect | –
5 | CC(=O)Nc1ccc2c(O)cc(S(=O)(=O)[O-])cc2c1.[Na+] [Compound C-19, sodium 7-acetylamino-4-hydroxy-2-naphthalenesulfonate] | – | – | mitogenesis inductor / tumorigenic effect on quiescent fibroblasts in the absence of aFGF [1]: certain tumorigenic effect
6 | Nc1cccc2ccc(S(=O)(=O)[O-])cc12.[Na+] [Compound C-14, sodium 8-amino-2-naphthalenesulfonate] | aFGF-induced mitogenic activity inhibitors | certain toxic effect | –
7 | CC(=O)Nc1cccc2cc(S(=O)(=O)[O-])ccc12.[Na+] [Compound C-10, sodium 5-acetylamino-2-naphthalenesulfonate] | slightly less than that of C-9 | innocuous | toxicity for quiescent fibroblasts [1, 5]: not toxic; aFGF-induced mitogenic activity inhibition (in words) (aFGF [2]; [5]): potent aFGF-induced mitogenic activity inhibitors; aFGF-induced mitogenic inhibitory activity compared between compounds (stereochemical guidelines) (aFGF [2]): does not substantially alter the inhibitory activity
8 | O=C(Nc1ccc(S(=O)(=O)[O-])c2ccccc12)c1ccccc1.[Na+] [Compound C-5, sodium 4-benzoylamino-1-naphthalenesulfonate] | low aFGF-induced mitogenesis inhibitory activity | not toxic | –
9 | Nc1ccc(S(=O)(=O)[O-])c2ccccc12.[Na+] [Compound C-3, sodium 4-amino-1-naphthalenesulfonate] | low aFGF-induced mitogenesis inhibitory activity | not toxic | –
10 | O=S(=O)(O)c1cccc2ccccc12 [Compound C-1, 1-naphthalenesulfonic acid] | aFGF-induced mitogenic activity inhibitors | certain toxic effect | toxicity at concentrations at which aFGF mitogenic activity is inhibited (literature) ([3]; listed as 1-NMS): clear toxicity; also recorded: toxic; aFGF-induced mitogenic activity inhibition (literature) (aFGF [4]; listed as 1-NMS): better aFGF mitogenic activity inhibitors than NTS; also recorded: aFGF-induced mitogenic activity inhibitors; also recorded: more potent inhibitor than 1,3,6-NTS and 1,5-NDS
11 | O=C(Nc1cccc2ccc(S(=O)(=O)[O-])cc12)c1ccccc1.[Na+] [Compound C-16, sodium 8-benzoylamino-2-naphthalenesulfonate] | aFGF-induced mitogenic activity inhibitors | innocuous | –
12 | CN(C)Cc1cc2cc(S(=O)(=O)O)ccc2[nH]1 [Compound C-25, 2-[(dimethylamino)methyl]-1H-indole-5-sulfonic acid] | – | – | mitogenesis inductor / tumorigenic effect on quiescent fibroblasts in the absence of aFGF [1]: certain tumorigenic effect
13 | O=S(=O)(O)c1cccc2c(S(=O)(=O)O)cccc12 [1,5-NDS, 1,5-naphthalenedisulfonic acid, reference compound] | – | – | toxicity at concentrations at which aFGF mitogenic activity is inhibited (literature) [3]: clear toxicity; also recorded: toxic; aFGF-induced mitogenic activity inhibition (literature) (aFGF [4]): better aFGF mitogenic activity inhibitors than NTS; also recorded: aFGF-induced mitogenic activity inhibitors
14 | CC(=O)Nc1ccc(S(=O)(=O)[O-])c2ccccc12.[Na+] [Compound C-4, sodium 4-acetylamino-1-naphthalenesulfonate] | aFGF-induced mitogenic activity inhibitors | certain toxic effect | –
15 | O=S(=O)([O-])c1cccc2cccnc12.[Na+] [Compound C-24, sodium 8-quinolinesulfonate] | little aFGF-induced mitogenesis inhibitory activity | innocuous | –
16 | O=C(CCCCC(=O)Nc1cccc2cc(S(=O)(=O)O)ccc12)Nc1cccc2cc(S(=O)(=O)[O-])ccc12.[Na+] [Compound C-13] | effective aFGF-induced mitogenesis activity inhibitors | – | mitogenesis inductor / tumorigenic effect on quiescent fibroblasts in the absence of aFGF [1]: high mitogenesis inductor activity; aFGF-induced mitogenic inhibitory activity compared between compounds (stereochemical guidelines) (aFGF [2]): significant reduction
17 | Nc1ccc2c(O)cc(S(=O)(=O)[O-])cc2c1.[Na+] [Compound C-18, sodium 7-amino-4-hydroxy-2-naphthalenesulfonate] | aFGF-induced mitogenic activity inhibitors | – | –
18 | NCc1ccc(S(=O)(=O)[O-])cc1.[Na+] [Compound C-21, sodium 4-(aminomethyl)benzenesulfonate] | – | – | mitogenesis inductor / tumorigenic effect on quiescent fibroblasts in the absence of aFGF [1]: certain tumorigenic effect
19 | O=S(=O)(O)c1ccc2ccccc2c1 [Compound C-8, 2-naphthalenesulfonic acid] | inhibits aFGF-induced mitogenic activity at lower concentrations than compound C-1 | toxic | aFGF-induced mitogenic activity inhibition (in words) (aFGF [2]; listed as 2-NMS): inhibits aFGF-induced mitogenic activity
20 | CN(C)c1cccc2c(S(=O)(=O)[O-])cccc12.[Na+] [Compound C-6, sodium 5-dimethylamino-1-naphthalenesulfonate] | aFGF-induced mitogenic activity inhibitors | certain toxic effect | –
21 | CC(=O)Nc1cccc2ccc(S(=O)(=O)[O-])cc12.[Na+] [Compound C-15, sodium 8-acetylamino-2-naphthalenesulfonate] | aFGF-induced mitogenic activity inhibitors | innocuous | –
22 | Nc1c(O)cc(S(=O)(=O)[O-])c2ccccc12.[Na+] [Compound C-7, sodium 4-amino-3-hydroxy-1-naphthalenesulfonate] | aFGF-induced mitogenic activity inhibitors; also recorded: best aFGF-induced mitogenic activity inhibitory activity | certain toxic effect | proliferation of quiescent fibroblasts cultured in the absence of aFGF ([1]; at concentrations exceeding 0.2 mM): significantly increases; IC50 rank among the tested compounds (aFGF [2]; aFGF-induced mitogenesis): lowest IC50
23 | Nc1ccc2cc(S(=O)(=O)[O-])cc(O)c2c1.[Na+] [Compound C-17, sodium 6-amino-4-hydroxy-2-naphthalenesulfonate] | slightly less than that of C-9 | innocuous | toxicity for quiescent fibroblasts [1, 6]: not toxic; aFGF-induced mitogenic activity inhibition (in words) (aFGF [2]; [6]): potent aFGF-induced mitogenic activity inhibitors; aFGF-induced mitogenic inhibitory activity compared between compounds (stereochemical guidelines) (aFGF [2]): better aFGF-induced mitogenic activity inhibitors
24 | Nc1ccc(S(=O)(=O)[O-])cc1.[Na+] [Compound C-20, sodium 4-aminobenzenesulfonate] | little aFGF-induced mitogenesis inhibitory activity | innocuous | –
